Data published in patent publication US20080255206A1, “Rxr Agonists and Antagonists, Alone or in Combination with Ppar Ligands, in the Treatment of Metabolic and Cardiovascular Diseases” (priority 2005, published 2008).

Tests used:
RARγ [1] = biological target: T1, RARγ (Homo sapiens, UniProt P13631); assay: Retinoid binding assay, RARγ; conditions: read-out: Binding Affinity IC50 RAR γ
T1 construct: The DEF domains of RAR's and the full length RXR's, expressed in E.coli; made in house; host or cells: E. coli
T1 sequence (P13631 185-419 limits assumed): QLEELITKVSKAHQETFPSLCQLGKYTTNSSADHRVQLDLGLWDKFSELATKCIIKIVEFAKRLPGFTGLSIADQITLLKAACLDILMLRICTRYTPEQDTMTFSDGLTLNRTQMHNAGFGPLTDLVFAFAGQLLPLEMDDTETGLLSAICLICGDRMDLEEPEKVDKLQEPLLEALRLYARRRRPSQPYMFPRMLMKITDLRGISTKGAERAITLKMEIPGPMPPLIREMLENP
Source text: The DEF domains of RAR's and the full length RXR's, expressed in E.coli, are used to measure competitive retinoid binding. […] 9-cis retinoic acid (for RXR's), respectively. […] Separation of bound from free radioactivity is achieved by charcoal/dextran (RAR's) or by desalting columns (RXR's). […] Retinoid Activation Assays

RARγ [2] = biological target: T2, RARγ (Homo sapiens, UniProt P13631); assay: Retinoid activation assay, RARγ (COS-1 cells, SeAP reporter); format: cell-based; conditions: read-out: Activation EC50 RAR γ
T2 sequence (P13631 185-454 limits assumed): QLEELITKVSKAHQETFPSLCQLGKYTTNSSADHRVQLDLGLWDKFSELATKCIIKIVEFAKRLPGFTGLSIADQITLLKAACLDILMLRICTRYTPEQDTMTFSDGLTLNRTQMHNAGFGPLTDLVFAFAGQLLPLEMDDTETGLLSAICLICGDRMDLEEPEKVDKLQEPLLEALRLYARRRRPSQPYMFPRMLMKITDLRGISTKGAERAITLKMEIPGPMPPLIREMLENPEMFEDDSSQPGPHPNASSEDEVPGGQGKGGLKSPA
Experimental: Chimeric RAR cDNAs are used for transfection which contain the DNA binding region of the estrogen receptor. As reporter system, the SeAp (secreted alkaline phosphatase) gene under control of the vitellogenin estrogen response element fused to the herpes simplex thymidinkinase promoter (vit-TK-SeAP) is used. The galactosidase expression vector pCH110 serves to correct for variation in transfection efficiency. […] At the end of the incubation, the cell supernatants are assayed for SeAP activity. Results are given as EC50 (nM), the concentration leading to half-maximal activation.

PPARγ/RXRα Heterodimer = biological target: T3, PPARγ/RXRα Heterodimer (Homo sapiens, UniProt P19793); assay: PPARγ/RXRα heterodimer activation (transactivation) assay; format: cell-based
T3 construct: co-transfected with plasmids expressing the full length RXR heteropartner receptor; expressed in transfected cells
T3 sequence (P19793 1-462): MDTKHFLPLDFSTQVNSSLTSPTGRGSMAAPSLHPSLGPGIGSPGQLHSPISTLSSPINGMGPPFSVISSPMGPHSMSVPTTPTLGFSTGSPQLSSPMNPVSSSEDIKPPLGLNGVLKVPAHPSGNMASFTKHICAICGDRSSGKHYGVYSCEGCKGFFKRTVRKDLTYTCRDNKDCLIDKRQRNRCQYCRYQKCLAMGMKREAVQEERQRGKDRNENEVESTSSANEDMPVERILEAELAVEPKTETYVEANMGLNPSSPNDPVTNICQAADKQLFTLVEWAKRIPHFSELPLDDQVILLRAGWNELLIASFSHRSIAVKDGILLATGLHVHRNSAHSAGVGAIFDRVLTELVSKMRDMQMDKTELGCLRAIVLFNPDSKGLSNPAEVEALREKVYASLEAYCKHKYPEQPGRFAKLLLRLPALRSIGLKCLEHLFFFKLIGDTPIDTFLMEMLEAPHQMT
T3 sequence (P37231 1-505 partner): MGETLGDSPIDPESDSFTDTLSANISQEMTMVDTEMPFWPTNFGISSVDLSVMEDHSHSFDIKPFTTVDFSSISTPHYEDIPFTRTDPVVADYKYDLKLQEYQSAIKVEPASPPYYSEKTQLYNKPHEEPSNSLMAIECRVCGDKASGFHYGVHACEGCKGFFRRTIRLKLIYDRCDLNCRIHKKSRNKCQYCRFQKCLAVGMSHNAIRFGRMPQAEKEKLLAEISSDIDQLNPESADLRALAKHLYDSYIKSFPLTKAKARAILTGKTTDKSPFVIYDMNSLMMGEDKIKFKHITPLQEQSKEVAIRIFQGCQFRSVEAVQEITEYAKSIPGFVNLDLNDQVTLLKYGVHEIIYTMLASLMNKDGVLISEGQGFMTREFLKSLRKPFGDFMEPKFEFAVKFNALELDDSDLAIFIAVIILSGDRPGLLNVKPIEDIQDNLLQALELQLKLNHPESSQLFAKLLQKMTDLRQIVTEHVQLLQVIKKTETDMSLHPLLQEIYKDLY
Source text: Nuclear hormone receptor (NHR) ligand dependent transcriptional transactivation assay.
Heterodimer reporter assays are potentially more important selection criteria for synthetic agonistic NHR ligands as they embody a more natural situation. Basically plasmids expressing the recombinant full length NHR are co-transfected with plasmids expressing the full length RXR heteropartner receptor and a reporter plasmid containing several copies of the natural responsive elements for the respective NHR driving the luciferase reporter gene.

RXRβ = biological target: T4, RXRβ (Homo sapiens, UniProt P28702); assay: Retinoid activation assay, RXRβ (Schneider SL-3 cells, luciferase reporter); format: cell-based; conditions: read-out: Activation EC50 RXR β
T4 construct: Full length RXR cDNA is used for transfection; expressed in transfected cells; host or cells: Schneider SL-3 cells (Drosophila)
T4 sequence (P28702 1-533): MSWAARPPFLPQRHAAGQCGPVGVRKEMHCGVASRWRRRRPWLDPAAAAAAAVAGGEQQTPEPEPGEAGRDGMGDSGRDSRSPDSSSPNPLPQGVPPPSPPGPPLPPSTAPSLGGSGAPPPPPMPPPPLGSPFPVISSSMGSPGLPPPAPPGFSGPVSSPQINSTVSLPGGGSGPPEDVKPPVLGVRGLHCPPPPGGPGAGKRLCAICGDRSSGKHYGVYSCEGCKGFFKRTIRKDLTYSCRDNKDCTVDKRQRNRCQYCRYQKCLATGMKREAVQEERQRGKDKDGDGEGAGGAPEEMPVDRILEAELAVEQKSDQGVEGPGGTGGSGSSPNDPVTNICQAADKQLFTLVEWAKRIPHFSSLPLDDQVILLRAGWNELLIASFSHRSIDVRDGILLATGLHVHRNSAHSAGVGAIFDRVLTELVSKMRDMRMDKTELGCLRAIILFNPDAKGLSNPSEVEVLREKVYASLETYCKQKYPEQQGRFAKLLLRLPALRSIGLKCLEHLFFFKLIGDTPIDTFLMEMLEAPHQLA
Experimental: Full length RXR cDNA is used for transfection. As reporter system, the luciferase gene is used in a construct with three copies of a RXR response element from rat CRBP gene, (formerly RARE from betaRAR gene), fused to alcoholdehydrogenase gene promoter in the plasmid pGL2-basic. Schneider SL-3 cells from Drosophila are transiently transfected 3-4 h before the experiment by the Ca-phosphate-DNA coprecipitation method. […] At the end of the incubation, the cell supernatants are assayed for luciferase activity. Results are given as EC50 (nM), the concentration leading to half-maximal activation.

| IC50 (RARγ [1]) | EC50 (RARγ [2]) | EC50 (PPARγ/RXRα Heterodimer) | EC50 (RXRβ) | Structure (SMILES) |
| --- | --- | --- | --- | --- |
| 7500 nM | 1000 nM | – | – | CC(/C=C/[C@@H]1C[C@@H]1c1ccc2c(c1)C(C)(C)CCC2(C)C)=C\C(=O)O (racemic) [Compound 4, (2E,4E)-3-methyl-5-[(1RS,2RS)-2-(5,5,8,8-tetramethyl-5,6,7,8-tetrahydro-naphthalen-2-yl)-cyclopropyl]-penta-2,4-dienoic acid] |
| > 10000 nM | – | > 10000 nM | – | CCOc1c([C@@H]2C[C@@H]2/C=C/C(C)=C/C(=O)O)cc(C(C)(C)C)cc1C(C)(C)C (racemic) [Compound 17, (2E,4E)-(1RS,2RS)-5-[2-(3,5-Di-tert-butyl-2-ethoxy-phenyl)-cyclopropyl]-3-methyl-penta-2,4-dienoic acid] |
| 5300 nM | 170 nM | 1.5 nM | 50 nM | CC1=C(/C=C/c2sccc2/C=C/C(C)=C/C(=O)O)C(C)(C)CCC1 [Compound 5, (2E,4E)-3-Methyl-5-[2-[(E)-2-(2,6,6-trimethyl-1-cyclohexen-1-yl)ethenyl]-3-thienyl]-2,4-pentadienoic acid] |
| 5300 nM | – | 23 nM | 77 nM | C/C(=C/C=C/C(C)=C/C(=O)O)c1cc2c(cc1C)C(C)(C)CCCC2 [Compound 13, (2E,4E,6Z)-3-Methyl-7-(3,5,5,-trimethyl-6,7,8,9-tetrahydro-5H-benzocyclohepten-2-yl)-octa-2,4,6-trienoic acid] |
| > 10000 nM | – | 1.25 nM | – | CCOc1c(\C(C)=C/C=C/C(C)=C/C(=O)O)cc(C(C)(C)C)cc1C(C)(C)C [Compound 21, (2E,4E,6Z)-7-[3,5-Bis(1,1-dimethylethyl)-2-ethoxyphenyl]-3-methyl-2,4,6-octatrienoic acid/ethyl ester] |
| 33 nM | 16.1 nM | 3.5 nM | ≥ 10000 nM | CCC1(CC)CCC(C)(C)c2cc(\C(C)=C/C=C/C(C)=C/C(=O)O)ccc21 [Compound 24, (2E,4E,6Z)-7-(5,5-Diethyl-8,8-dimethyl-5,6,7,8-tetrahydro-naphthalen-2-yl)-3-methyl-octa-2,4,6-trienoic acid] |

More lines, now with the values behind:

| Structure (SMILES) | IC50 (RARγ [1]) | EC50 (RARγ [2]) | EC50 (PPARγ/RXRα Heterodimer) | EC50 (RXRβ) |
| --- | --- | --- | --- | --- |
| CCCCOc1c([C@@H]2C[C@@H]2/C=C/C(C)=C/C(=O)O)cc(C(C)(C)C)cc1C(C)(C)C (racemic) [Compound 16, (2E,4E)-(1RS,2RS)-5-[2-(3,5-Di-tert-butyl-2-butoxy-phenyl)-cyclopropyl]-3-methyl-penta-2,4-dienoic acid] | > 10000 nM | – | > 10000 nM | – |
| CC1=C(/C=C/C2=C(/C=C/C(C)=C/C(=O)O)CCCCC2)C(C)(C)CCC1 [Compound 1, (2E,4E)-3-methyl-5-[2-[(E)-2-(2,6,6-trimethyl-1-cyclohexen-1-yl)ethenyl]-1-cyclohepten-1-yl]-2,4-pentadienoic acid] | > 10000 nM | – | 70 nM | – |
| CC(/C=C/C1=C(c2ccc3c(c2)C(C)(C)CCC3(C)C)CCCC1)=C\C(=O)O [Compound 6, (2E,4E)-3-Methyl-5-[2-(5,5,8,8-tetramethyl-5,6,7,8-tetrahydro-naphthalen-2-yl)-cyclohex-1-enyl]-penta-2,4-dienoic acid] | > 10000 nM | – | – | 1850 nM |
| CC(/C=C/c1ccccc1-c1ccc2c(c1)C(C)(C)CCC2(C)C)=C\C(=O)O [Compound 7, (2E,4E)-3-methyl-5-[2-(5,5,8,8-tetramethyl-5,6,7,8-tetrahydro-naphthalen-2-yl)-phenyl]-penta-2,4-dienoic acid] | 6300 nM | – | – | 330 nM |
| CC(/C=C/c1sccc1-c1ccc2c(c1)C(C)(C)CCC2(C)C)=C\C(=O)O [Compound 9] | 3600 nM | 890 nM | 38 nM | – |
| CC(/C=C/C1=C(c2ccc3c(c2)C(C)(C)CCC3(C)C)CCC1)=C\C(=O)O [Compound 12, (2E,4E)-3-Methyl-5-[2-(5,5,8,8-tetramethyl-5,6,7,8-tetrahydro-naphthalen-2-yl)-cyclopent-1-enyl]-penta-2,4-dienoic acid] | 6600 nM | 200 nM | 7.7 nM | 60 nM |
| CC1=C(/C=C/C2=C(/C=C/C(C)=C/C(=O)O)CCC2)C(C)(C)CCC1 [Compound 14, (2E,4E)-3-Methyl-5-[2-[(E)-2-(2,6,6-trimethyl-1-cyclohexen-1-yl)ethenyl]-1-cyclopenten-1-yl]-2,4-pentadienoic acid] | – | 150 nM | 7 nM | 270 nM |
| CCCCOc1c(\C(C)=C/C=C/C(C)=C/C(=O)O)cc(C(C)(C)C)cc1C(C)(C)C [Compound 15, (2E,4E,6Z)-7-[2-butoxy-3,5-bis(1,1-dimethylethyl)phenyl]-3-methyl-2,4,6-octatrienoic acid] | 2700 nM | – | > 10000 nM | – |
| CC1=C(C#CC2=C(/C=C/C(C)=C/C(=O)O)CCCCC2)C(C)(C)CCC1 [Compound 18] | > 10000 nM | – | > 10000 nM | ≥ 10000 nM |
